Patent publication US9750481B2, “System and method for analyzing antegrade and retrograde blood flow” (Indiana University Research and Technology Corporation, priority 2014, dated 2017)
Entries after “also recorded” stand apart in the source; their conditions may differ.

How the values were obtained:
[1] = system: superficial femoral artery (SFA); test: Shear rates in the SFA by Doppler ultrasound during 3 hours of sitting with oral Vitamin C (VIT trial); format: in vivo, human; details: Mean ± SD
Protocol: Two screening visits and two sitting trials in random sequence, one with uninterrupted sitting (SIT) and one with oral Vitamin C during the sitting time (VIT) were conducted. Specifically, SIT represents prolonged 3 hours of sitting. VIT represents prolonged sitting with intermittent vitamin C. Flow mediated dilation (FMD) was measured at 0, 1, 2 and 3 hours. Subjects ingested 1 g vitamin C at 30 minutes and 500 mg at 1 hour 30 minutes. Subjects arrived at the laboratory after an overnight fast of at least 6 hours between 7:00 AM and 9:00 AM. The arrival time was matched for both trials within each subject. Subjects were also asked to refrain from any caffeinated drink for at least 8 hours before reporting to the lab. Upon their arrival in the lab, all subjects self-reported adhering to the fasting schedule. During both trials, the subjects remained seated for 3 hours without moving their legs or feet. Subjects were allowed to move their arms, not vigorously, for example to use a computer or do light reading during the non-testing periods of the trials. Arm movement was not quantified. The flow mediated dilation (FMD) and other vascular function parameters were measured at baseline, 1 hour, 2 hours and 3 hours into testing. The two trials were performed in random order, separated by a minimum of two and a maximum of seven days. The SIT trial was uninterrupted sitting for 3 hours, whereas in the VIT trial, subjects ingested two Vitamin C tablets; 1 g at 30 minutes and 500 mg at 1 hour 30 minutes during the sitting interval. In addition to imaging the arterial dimensions, Doppler ultrasound was used to concurrently measure SFA blood velocity. Doppler flow signals were corrected at an insonation angle of 60°, and the sample volume was placed in the middle of the artery. Diameter images and Doppler measurements of blood velocity were continuously recorded for 45 seconds at baseline prior to cuff inflation. The automatic blood pressure cuff was then rapidly inflated to 250 mmHg and maintained for 5 minutes until cuff deflation. Diameter and blood velocity recordings resumed prior to cuff deflation and continued for 5 minutes after deflation. Ultrasound images were continuously recorded at 5 frames•s^-1 with […] (TechSmith, Okemos, Mich., USA), and stored as .avi files. This procedure was repeated hourly across the sitting intervals. Off-line analysis of diameters was performed using automated edge-detection software (Brachial Analyzer, Medical Imaging Applications LLC, Coralville, IA, USA). This software allows the technician to determine a region of interest where the near and far vessel walls are most clear. The vessel wall borders are then detected using an optimal graph search-based segmentation that uses a combination of pixel density and image gradient as an objective function. All analyzed images were reviewed by the technician and edited when needed to ensure that diameter measurements were always determined from the intima-lumen interface at the near and far vessel wall. Blood velocities were determined using the systems and methods described herein after automated selection of the blood flow envelop throughout the measurement. The velocity-time integral was used to calculate the mean blood velocity for each cardiac cycle. Diameters and blood velocities were not ECG-gated. The peak dilation after cuff deflation was determined using the highest 3-s moving average and was presented as a percentage change from baseline diameter (FMD %). SFA shear rate was used as an estimate of arterial shear stress and was calculated for each FMD % at baseline and during the post occlusion period using the following formula: 4•Vm•D-1 where Vm is mean blood velocity (cm• s-1) and D is mean arterial diameter (cm). All measurements and analysis were performed by a single researcher (ST) who was blinded to the participant identity and treatment condition for each image file.

SFA endothelial function = test: Superficial femoral artery flow mediated dilation (SFA FMD) during 3 hours of sitting, SIT vs VIT trial; format: in vivo, human; details: oral Vitamin C 1 g at 30 minutes and 500 mg at 1 hour 30 minutes, different at 1 hour (p=0.009), 2 hours (p=0.016), 3 hours (p=0.004)
Protocol: Two screening visits and two sitting trials in random sequence, one with uninterrupted sitting (SIT) and one with oral Vitamin C during the sitting time (VIT) were conducted. Specifically, SIT represents prolonged 3 hours of sitting. VIT represents prolonged sitting with intermittent vitamin C. Flow mediated dilation (FMD) was measured at 0, 1, 2 and 3 hours. Subjects ingested 1 g vitamin C at 30 minutes and 500 mg at 1 hour 30 minutes. Subjects arrived at the laboratory after an overnight fast of at least 6 hours between 7:00 AM and 9:00 AM. The arrival time was matched for both trials within each subject. […] Subjects were allowed to move their arms, not vigorously, for example to use a computer or do light reading during the non-testing periods of the trials. Arm movement was not quantified. The flow mediated dilation (FMD) and other vascular function parameters were measured at baseline, 1 hour, 2 hours and 3 hours into testing. […] Endothelial function was measured using SFA FMD, measured in accordance with current guidelines. […] Diameter images and Doppler measurements of blood velocity were continuously recorded for 45 seconds at baseline prior to cuff inflation. […] Ultrasound images were continuously recorded at 5 frames•s^-1 with […] […] Blood velocities were determined using the systems and methods described herein after automated selection of the blood flow envelop throughout the measurement. […]

[2] = 1 hr, oral Vitamin C 1 g at 30 minutes
[3] = 2 hr, oral Vitamin C 1 g at 30 minutes and 500 mg at 1 hour 30 minutes
[4] = 3 hr, oral Vitamin C 1 g at 30 minutes and 500 mg at 1 hour 30 minutes
[5] = Baseline (0 hr), before Vitamin C ingestion, male subjects, sitting

Which results are given for O=C1O[C@H]([C@@H](O)CO)C(O)=C1O [Vitamin C]?
Antegrade shear rate in the SFA [1, 2]: 8.58 ± 6.91 s⁻¹; Mean shear rate in the SFA [1, 2]: 4.44 ± 4.23 s⁻¹; Antegrade shear rate in the SFA [1, 3]: 6.56 ± 3.08 s⁻¹; Mean shear rate in the SFA [1, 3]: 2.99 ± 2.6 s⁻¹; Antegrade shear rate in the SFA [1, 4]: 6.22 ± 2.39 s⁻¹; Mean shear rate in the SFA [1, 4]: 3.17 ± 2.14 s⁻¹; Antegrade shear rate in the SFA [1, 5]: 7.03 ± 3.5 s⁻¹; Mean shear rate in the SFA [1, 5]: 5.17 ± 7.54 s⁻¹; Effect on decline of SFA FMD % during sitting (SFA endothelial function): prevented the decline in SFA FMD; also recorded: prevented the decline in endothelial function; Effect on decline of SFA FMD % during sitting (SFA endothelial function; listed as VIT): preventing the decline of FMD
